Results: patent US12037324B2, “Biarylmethyl heterocycles” (Université de Montréal, priority 2016, dated 2024)

What was measured:
Type in all cases: cell-based
hAT1R [1] = target: T1, hAT1R (Homo sapiens, UniProt P30556); test: BRET β-arrestin2 biosensor assay, higher receptor expression (hAT1R 5 ng/well), HEK293 cells; settings: for EC50: High AT1R Expression
T1 sequence (P30556 1-359): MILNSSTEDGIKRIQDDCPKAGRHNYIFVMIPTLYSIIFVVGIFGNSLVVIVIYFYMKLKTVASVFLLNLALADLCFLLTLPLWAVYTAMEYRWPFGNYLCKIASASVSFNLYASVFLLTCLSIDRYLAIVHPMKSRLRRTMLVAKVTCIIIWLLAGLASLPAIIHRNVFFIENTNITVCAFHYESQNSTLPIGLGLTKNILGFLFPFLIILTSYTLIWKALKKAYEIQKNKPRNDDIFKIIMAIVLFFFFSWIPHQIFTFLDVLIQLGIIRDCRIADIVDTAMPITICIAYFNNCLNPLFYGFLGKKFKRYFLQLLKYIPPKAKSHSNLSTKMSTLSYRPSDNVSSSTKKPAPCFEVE

AGTR1 = target: T2, AGTR1 (Homo sapiens, UniProt P30556); test: DiscoveRx β-arrestin2 recruitment assay (enzyme complementation, Pathunter CHO-K1 AGTR1 β-arrestin cell line); settings: DiscoveRx β-arrestin2 recruitment; for DiscoveRx β-arrestin2 Ymax (%): maximal response
T2 construct: host or cells: Pathunter CHO-K1 AGTR1 β-arrestin cell line (CHO-K1)
T2 sequence (P30556 1-359): T1 sequence (P30556 1-359)
How it was run: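 Chemiluminescent enzyme-complementation read-out of β-arrestin2 recruitment to AGTR1 in engineered CHO-K1 cells after 90 min compound exposure at 37° C. Values are 4-parameter logistic EC50s in agonist mode, IC50s in antagonist mode, with efficacy relative to the maximal All response.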

hAT1R [2] = target: T1, hAT1R; test: BRET Gq biosensor assay, agonist response, HEK293 cells; settings: section of the 42nd table directly before the BRET P63 section
Method: BRET β-arrestin2 and Gq Activation Assays
In another aspect of the invention, association of the ATIR with signaling proteins is assessed using bioluminescence resonance energy transfer assays (Stephane Angers, Ali Salahpour et al. 2002). This technology measures the association between bioluminescent and fluorescent protein tags.
Several of the plasmid constructs used in BRET experiments were previously described. Briefly, the coding sequence of β-arrestin2 was fused to Renilla luciferase II to generate β-arrestin2-Rluc (Quoyer, Janz et al. 2013). The membrane targeting motif from K-Ras, CAAX motif (GKKKKKKSKTKCVIM), was fused to Renilla GFP to create rGFP-CAAX plasmid (Namkung Y et al., Nat Commun (2016) 7, 12178). The Renilla luciferase II was inserted in the Gaq protein to generate Gaq-Rluc (Breton, Sauvageau et al. 2010). The Gγ1 protein was tagged with GFP10 to obtain GFP-Gyl, using the same strategy described previously for GFP-Gy2 (Gales, Rebois et al. 2005). The Gaq binding domain of the p63RhoGEF protein (amino acids 295-502) was fused to Renilla luciferase II to create P63-Rluc. Finally, the hAT1R plasmid construct encoding the receptor was generated by optimizing the coding sequence of human angiotensin II receptor (GeneOptimizer from ThermoFisher), and adding an artificial cleavable signal peptide from bovine prolactin ([…]) in N-terminus of the receptor to increase cell surface expression.
Gq Biosensor Assay HEK293 cells were cultured in DMEM supplemented with Penicillin-Streptomycin and 10% fetal bovine serum. Two days before the BRET experiment, HEK293 cells were transfected with hAT1R expression plasmid (200 ng/well) as well as Gaq-Rluc (100 ng/well), Gβ1 (375 ng/well) and GFP-Gγ1 (625 ng/well), using linear polyethylenimine 25 kDa (PEI) at a PEI:DNA ratio of 3:1. Transfected cells were directly seeded in 96-well plates, at a density of 35 000 cells per well, and maintained in culture for the next 48 h.
BRET experiments were carried out subsequently using the following procedures: cells were washed once with Tyrode's buffer (137 mM NaCl, 1 mM CaCl2, 0.9 mM KCl, […], 3.6 mM NaH2PO4, 5.5 mM glucose, 12 mM NaHCO3, and 25 mM HEPES, pH 7.4) and 90 μl of Tyrode's buffer was added to each well. Cells were equilibrated in their new buffer at room temperature for at least 30 minutes. Following the equilibration period, the coelenterazine substrate was first added to the cells, 10 μl per well of a 10×solution (prolume purple coelenterazine at a final concentration of 2 μM), immediately followed by compound addition using the HP D300 digital dispenser from Tecan (10 singlicate concentrations). Cells were incubated for 5 min at room temperature and BRET readings were then collected using a Synergy Neo Multi-Mode reader from BioTek with BRET2 filters 410/515, to record agonist response. […] A second reading was collected 5 min after this second addition, using the Synergy Neo Multi-Mode reader from BioTek with BRET2 filters 410/515, to record antagonist response. The BRET signal was determined by calculating the ratio of the light emitted by GFP (515 nm) over the light emitted by the Rluc (410 nm). To analyze agonist response, BRET signal values were converted into percentage of activation using the non-stimulated control as 0% and AngII maximal response as 100%. Sigmoidal concentration-response curves were generated with those normalized values using a 4-parameter logistic equation (IDBS ActivityBase software), to determine EC50 of the different compounds. In the case of antagonist response analysis, BRET signal values were converted into percentage of inhibition using the fixed dose of AngII (corresponding to the EC50) as 0% and non-stimulated control as 100%. Sigmoidal concentration-response curves were generated with those normalized values using a 4-parameter logistic equation (IDBS ActivityBase software), to determine IC50 of the different compounds.

| Structure (SMILES) | BRET β-Arrestin2 High AT1R Expression Ymax (%) (hAT1R [1]) | EC50 (hAT1R [1]) | EC50 (AGTR1) | DiscoveRx β-arrestin2 Ymax (%) (AGTR1) | EC50 (hAT1R [2]) |
| --- | --- | --- | --- | --- | --- |
| CCCCC(=O)N(Cc1ccc(-c2cc(-c3ccccc3)ccc2-c2nn[nH]n2)cc1)C1(C(=O)O)CCCCC1 [Example 272] | 84.0% | 15.2 nM | 16.5 nM | 43.5% | > 100000 nM |
| CCCCC(=O)N(Cc1ccc(-c2cc(-c3ccccc3)ccc2-c2nn[nH]n2)nc1)C1(C(=O)O)CCCCC1 [Example 273] | 88.1% | 23.2 nM | 21.4 nM | 39.3% | 155 nM |
| CCCCC(=O)N(Cc1ccc(-c2cc(-c3ccccc3)ccc2-c2nn[nH]n2)cn1)C1(C(=O)O)CCCCC1 [Example 274] | 82.5% | 279 nM | 251 nM | 37.5% | 1490 nM |
| CCCCC(=O)N(Cc1ccc(-c2cc(-c3ccccc3)ccc2-c2nn[nH]n2)cc1)C1(C(=O)O)CCC(C)(C)CC1 [Example 275, 1-(N-((6′-(2H-Tetrazol-5-yl)-[1,1′:3′,1″-terphenyl]-4-yl)methyl)pentan-amido)-4,4-dimethylcyclohexanecarboxylic acid] | 71.5% | 21.5 nM | 26.6 nM | 50.9% | > 100000 nM |
| CCCCC(=O)N(Cc1ccc(-c2cc(-c3ccccc3)ccc2-c2nn[nH]n2)cc1)C1(C(=O)O)CCOCC1 [Example 276] | 73.6% | 77.9 nM | 50 nM | 50.9% | 401 nM |
| CCCCC(=O)N(Cc1ccc(-c2cc(-c3ccccc3)ccc2-c2nn[nH]n2)cc1)C1(C(=O)O)CCCCCC1 [Example 277] | 79.4% | 28.9 nM | 36.1 nM | 46.0% | > 100000 nM |
| CCCCC(=O)N(Cc1ccc(-c2cc(-c3ccccc3)ccc2-c2nn[nH]n2)cc1)[C@]1(C(=O)O)CC[C@@H](C)CC1 [Example 278] | 87.2% | 13 nM | 45.1 nM | 51.9% | 1210 nM |
| CCCCC(=O)N(Cc1ccc(-c2cc(-c3ccccc3)ccc2-c2nn[nH]n2)cc1)C1(C(=O)O)Cc2ccccc2C1 [Example 279] | 82.6% | 210 nM | 190 nM | 33.7% | > 100000 nM |
| CCCCC(=O)N(Cc1ccc(-c2cc(-c3ccccc3)ccc2-c2noc(=O)[nH]2)cc1)C1(C(=O)OC)CCCCC1 [Example 280, Methyl 1-(N-((6′-(5-oxo-4,5-dihydro-1,2,4-oxadiazol-3-yl)-[1,1′:3′,1″-terphenyl]-4-yl)methyl)pentanamido)cyclohexanecarboxylate] | 75.7% | 699 nM | 904 nM | 35.2% | 2870 nM |
| CCCCC(=O)N(Cc1ccc(-c2cc(-c3ccccc3)ccc2-c2noc(=O)[nH]2)cc1)C1(C(=O)O)CCCCC1 [Example 281] | 93.1% | 10.5 nM | 41.6 nM | 47.4% | 232 nM |
| CCCCC(=O)N(Cc1ccc(-c2cc(-c3ccccc3)ccc2-c2nn[nH]n2)cc1)[C@]1(C(=O)O)CC[C@@H](O)CC1 [Example 283, (1R,4R)-1-(N-((6′-(2H-Tetrazol-5-yl)-[1,1′:3′,1″-terphenyl]-4-yl)methyl)pentan-amido)-4-hydroxycyclohexanecarboxylic acid] | 88.5% | 22.8 nM | 44.5 nM | 57.5% | 155 nM |
| CCCCC(=O)N(Cc1ccc(-c2cc(-c3ccccc3)ccc2-c2nn[nH]n2)cc1)[C@]1(C(=O)O)CC[C@H](O)CC1 [Example 284, (1S,4S)-1-(N-((6′-(2H-Tetrazol-5-yl)-[1,1′:3′,1″-terphenyl]-4-yl)methyl)pentanamido)-4-hydroxycyclohexanecarboxylic acid] | 92.9% | 33 nM | 21.1 nM | 62.7% | 151 nM |
| CCCCC(=O)N(Cc1ccc(-c2cc(Oc3ccccc3)ccc2-c2nn[nH]n2)cc1)C1(C(=O)O)CCCCC1 [Example 285, 1-(N-((5′-Phenoxy-2′-(2H-tetrazol-5-yl)-[1,1′-biphenyl]-4-yl)methyl)pentanamido)cyclohexanecarboxylic acid] | 33.4% | 57.3 nM | 66.4 nM | 24.8% | 1540 nM |
| CCCCC(=O)N(Cc1ccc(-c2cc(Oc3cccnc3)ccc2-c2nn[nH]n2)cc1)C1(C(=O)O)CCCCC1 [Example 286] | 45.3% | 47.1 nM | 113 nM | 35.8% | 302 nM |
| CCCCC(=O)N(Cc1ccc(-c2cc(Oc3cccc(OC(F)(F)F)c3)ccc2-c2nn[nH]n2)cc1)C1(C(=O)O)CCCCC1 [Example 287] | 45.9% | 54.1 nM | 175 nM | 30.5% | > 100000 nM |
| CCCCC(=O)N(Cc1ccc(-c2cc(-c3cnn(C)c3)ccc2-c2nn[nH]n2)cc1)C1(C(=O)O)CCCCC1 [Example 288, 1-(N-((5′-(1-Methyl-1H-pyrazol-4-yl)-2′-(2H-tetrazol-5-yl)-[1,1′-biphenyl]-4-yl)methyl)pentanamido)cyclohexanecarboxylic acid] | 69.2% | 474 nM | 186 nM | 29.6% | > 100000 nM |
| CCCCC(=O)N(Cc1ccc(-c2cc(-c3cc(F)cc(F)c3)ccc2-c2nn[nH]n2)cc1)C1(C(=O)O)CCCCC1 [Example 289] | 85.2% | 13 nM | 48.2 nM | 51.1% | 546 nM |
| CCCCC(=O)N(Cc1ccc(-c2cc(-c3cccnc3OC)ccc2-c2nn[nH]n2)cc1)C1(C(=O)O)CCCCC1 [Example 290] | 31.2% | 67.3 nM | 88.5 nM | 30.7% | 503 nM |
